These results are taken from patent US8895744B2, “Alfa-carboline inhibitors of NPM-ALK, RET, and Bcr-Abl” (Universita' Degli Studi di Milano-Bicocca, priority 2008, dated 2014).

One data set has as its target T1, Recombinant ALK kinase (Homo sapiens, UniProt Q9UM73).
T1 construct: made in house; host or cells: Sf9 insect cells (baculovirus)
Kind of data set: ALK kinase inhibitory activity, ELISA-based in vitro kinase assay. The format is biochemical. As to conditions: purified rALK, 0.3 mM ATP, read-out: ALK IC50. The procedure, abridged:
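Sf9-expressed, purified recombinant ALK phosphorylated a plate-coated peptide substrate with 0.3 mM ATP, Mn2+/Mg2+, pH 7.5, 15 min at 30° C, after 10 min inhibitor preincubation. Phosphotyrosine was detected by anti-pTyr ELISA (TMB, A450); IC50 in μM is the concentration giving 50% inhibition relative to control.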
A general note: ELISA stands for enzyme-linked immunosorbent assay.

Data set [1] concerns the target T2, Recombinant Abl T315I protein (Homo sapiens, UniProt P00519, T315I).
T2 construct: made in house; host or cells: Sf9 cells (baculovirus)
The data set is described as follows: Abl T315I mutant kinase inhibitory activity, ELISA-based in vitro kinase assay. As to conditions: purified Abl T315I, 0.3 mM ATP. It is filed as biochemical. The protocol: (§1) Recombinant ALK kinase was expressed in Sf9 insect cells using the pBlueBacHis2C baculovirus vector system and purified using an anion exchange Fast Flow Q-sepharose column (Amersham-Pharmacia Biotech) followed by HiTrap™-nickel affinity column (Amersham-Pharmacia Biotech). Purified ALK protein was used to screen inhibitors in the ELISA-based kinase assay. A Nunc Immuno 96 well plate was incubated overnight at 37° C. with coating solution (125 μL/well) containing ALK peptide substrate ([…]) (SEQ ID NO: 1) at various concentrations in PBS. Wells were then washed with 200 μL of wash buffer (PBS-Tween 0.05%) and left to dry for at least 2 h at 37° C. The kinase reaction was performed in the presence of 50 mM Tris pH 7.5, 5 mM MnCl2, 5 mM MgCl2, 0.3 mM ATP and purified rALK in a total volume of 100 μL/well at 30° C. for 15 min. For inhibitor testing the reaction mix was preincubated with the inhibitor or solvent control for 10 min at room temperature before transferring to the ELISA plate. After the reaction wells were washed 5 times with 200 μL of wash buffer. Phosphorylated peptide was detected using 100 μL/well of a mouse monoclonal anti-phosphotyrosine antibody (clone 4G10 Upstate Biotech Ltd) diluted 1:2000 in PBS+4% BSA. After 30 min incubation at room temperature the antibody was removed and wells were washed as described above. 100 μL of a secondary antibody (anti-mouse IgG, Horseradish Peroxidase linked whole antibody, Amersham Pharmacia Biotech) diluted 1:1000 in PBS+4% BSA was added to each well and the plate was incubated again for 30 min at room temperature before washing as above. The plate was developed using 100 μL/well TMB Substrate Solution (Endogen) and the reaction was stopped by adding an equiv.ual volume of H2SO4 0.36 M. Finally, the absorbance was read at 450 nm using an Ultrospec® 300 spectrophotometer (Amersham-Pharmacia Biotech). The concentration of the test solution showing 50% inhibition as compared with the control was expressed as IC50 (μM).
37. Abl T315I Mutant Kinase Inhibitory Activity
(§2) Method: ELISA-Based In Vitro Kinase Assay
(§3) Recombinant Abl T315I protein was expressed in Sf9 cells using the pBlueBacHis2C baculovirus expression vector. Abl T315I was purified using an anion exchange Fast Flow Q-sepharose column (Amersham-Pharmacia Biotech) followed by HiTrap™-nickel affinity column (Amersham-Pharmacia Biotech). Purified Abl T315I was used in the ELISA-based kinase assay to screen inhibitors as described above. The kinase reaction was performed in the presence of 50 mM Tris pH 7.5, 1 mM MnCl2, 5 mM MgCl2, 0.3 mM ATP, peptide substrate ([…]) (SEQ ID NO: 1) and purified Abl T315I. The concentration of the test solution showing 50% inhibition as compared with the control was expressed as IC50 (μM).

For a further data set, the target named is T3, Recombinant Ret protein (Homo sapiens, UniProt P07949).
T3 construct: made in house; host or cells: Sf9 cells (baculovirus)
T3 sequence (P07949 29-1114): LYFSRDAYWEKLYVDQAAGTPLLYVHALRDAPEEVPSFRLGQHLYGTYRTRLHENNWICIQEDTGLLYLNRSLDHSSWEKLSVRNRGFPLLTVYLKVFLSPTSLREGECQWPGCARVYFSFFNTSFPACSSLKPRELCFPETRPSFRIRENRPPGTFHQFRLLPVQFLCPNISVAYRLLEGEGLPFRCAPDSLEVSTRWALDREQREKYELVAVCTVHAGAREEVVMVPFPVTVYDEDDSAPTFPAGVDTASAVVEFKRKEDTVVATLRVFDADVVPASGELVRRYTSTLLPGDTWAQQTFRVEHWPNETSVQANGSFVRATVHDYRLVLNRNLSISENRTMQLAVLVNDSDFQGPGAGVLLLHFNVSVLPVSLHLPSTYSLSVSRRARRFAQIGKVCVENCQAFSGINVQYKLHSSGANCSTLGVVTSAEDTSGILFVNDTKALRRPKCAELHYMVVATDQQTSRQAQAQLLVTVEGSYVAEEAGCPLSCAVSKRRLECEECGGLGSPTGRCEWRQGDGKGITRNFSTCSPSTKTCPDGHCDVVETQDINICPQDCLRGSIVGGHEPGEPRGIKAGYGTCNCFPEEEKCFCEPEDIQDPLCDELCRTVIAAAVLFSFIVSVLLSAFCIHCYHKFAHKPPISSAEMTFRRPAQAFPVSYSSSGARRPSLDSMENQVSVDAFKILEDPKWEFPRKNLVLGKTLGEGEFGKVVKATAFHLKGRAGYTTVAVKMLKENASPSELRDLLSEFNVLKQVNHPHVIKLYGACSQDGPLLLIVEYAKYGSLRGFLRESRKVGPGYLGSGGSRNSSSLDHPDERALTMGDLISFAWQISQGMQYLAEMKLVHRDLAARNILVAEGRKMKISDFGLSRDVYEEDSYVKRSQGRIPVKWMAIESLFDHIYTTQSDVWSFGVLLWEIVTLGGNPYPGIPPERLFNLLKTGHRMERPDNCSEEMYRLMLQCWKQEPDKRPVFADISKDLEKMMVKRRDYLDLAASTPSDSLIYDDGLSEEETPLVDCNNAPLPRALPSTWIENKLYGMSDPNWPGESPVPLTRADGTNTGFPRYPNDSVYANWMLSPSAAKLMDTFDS
Kind of data set: RET kinase inhibitory activity, ELISA-based in vitro kinase assay. It is filed as biochemical. The following applies: purified Ret, 0.3 mM ATP. The protocol: as §1
38. RET Kinase Inhibitory Activity
as §2
as §3, with “Ret” for “Abl T315I”, “Ret.” for “Abl T315I.”

Data set [2] relates to parent untransformed BaF3 cells. The data set is described as follows: Tritiated thymidine uptake cell proliferation assay, parental BaF3 (control). As to conditions: Mus musculus, 3[H]-thymidine uptake, 72 h, medium with IL-3, read-out: BaF parental IC50. The format is cell-based. The procedure, abridged: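 Control lines were parental BaF3 in IL-3-supplemented medium and ALK-, Abl- or RET-negative U937, seeded at 10 000 cells/well with serial inhibitor dilutions for 72 h at 37 °C. ³H-thymidine (1 μCi/well) was added for the final 16 h; IC50 (μM) is the concentration halving uptake versus DMSO.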

The target of data set [3] is T4, BaF3 cells transformed with the oncogenic fusion protein NPM/ALK (Homo sapiens, UniProt Q9UM73).
T4 construct: fused on or other part: P06748 (Nucleophosmin)
T4 sequence (Q9UM73 whole entry, change not shown, the tested form may be a part): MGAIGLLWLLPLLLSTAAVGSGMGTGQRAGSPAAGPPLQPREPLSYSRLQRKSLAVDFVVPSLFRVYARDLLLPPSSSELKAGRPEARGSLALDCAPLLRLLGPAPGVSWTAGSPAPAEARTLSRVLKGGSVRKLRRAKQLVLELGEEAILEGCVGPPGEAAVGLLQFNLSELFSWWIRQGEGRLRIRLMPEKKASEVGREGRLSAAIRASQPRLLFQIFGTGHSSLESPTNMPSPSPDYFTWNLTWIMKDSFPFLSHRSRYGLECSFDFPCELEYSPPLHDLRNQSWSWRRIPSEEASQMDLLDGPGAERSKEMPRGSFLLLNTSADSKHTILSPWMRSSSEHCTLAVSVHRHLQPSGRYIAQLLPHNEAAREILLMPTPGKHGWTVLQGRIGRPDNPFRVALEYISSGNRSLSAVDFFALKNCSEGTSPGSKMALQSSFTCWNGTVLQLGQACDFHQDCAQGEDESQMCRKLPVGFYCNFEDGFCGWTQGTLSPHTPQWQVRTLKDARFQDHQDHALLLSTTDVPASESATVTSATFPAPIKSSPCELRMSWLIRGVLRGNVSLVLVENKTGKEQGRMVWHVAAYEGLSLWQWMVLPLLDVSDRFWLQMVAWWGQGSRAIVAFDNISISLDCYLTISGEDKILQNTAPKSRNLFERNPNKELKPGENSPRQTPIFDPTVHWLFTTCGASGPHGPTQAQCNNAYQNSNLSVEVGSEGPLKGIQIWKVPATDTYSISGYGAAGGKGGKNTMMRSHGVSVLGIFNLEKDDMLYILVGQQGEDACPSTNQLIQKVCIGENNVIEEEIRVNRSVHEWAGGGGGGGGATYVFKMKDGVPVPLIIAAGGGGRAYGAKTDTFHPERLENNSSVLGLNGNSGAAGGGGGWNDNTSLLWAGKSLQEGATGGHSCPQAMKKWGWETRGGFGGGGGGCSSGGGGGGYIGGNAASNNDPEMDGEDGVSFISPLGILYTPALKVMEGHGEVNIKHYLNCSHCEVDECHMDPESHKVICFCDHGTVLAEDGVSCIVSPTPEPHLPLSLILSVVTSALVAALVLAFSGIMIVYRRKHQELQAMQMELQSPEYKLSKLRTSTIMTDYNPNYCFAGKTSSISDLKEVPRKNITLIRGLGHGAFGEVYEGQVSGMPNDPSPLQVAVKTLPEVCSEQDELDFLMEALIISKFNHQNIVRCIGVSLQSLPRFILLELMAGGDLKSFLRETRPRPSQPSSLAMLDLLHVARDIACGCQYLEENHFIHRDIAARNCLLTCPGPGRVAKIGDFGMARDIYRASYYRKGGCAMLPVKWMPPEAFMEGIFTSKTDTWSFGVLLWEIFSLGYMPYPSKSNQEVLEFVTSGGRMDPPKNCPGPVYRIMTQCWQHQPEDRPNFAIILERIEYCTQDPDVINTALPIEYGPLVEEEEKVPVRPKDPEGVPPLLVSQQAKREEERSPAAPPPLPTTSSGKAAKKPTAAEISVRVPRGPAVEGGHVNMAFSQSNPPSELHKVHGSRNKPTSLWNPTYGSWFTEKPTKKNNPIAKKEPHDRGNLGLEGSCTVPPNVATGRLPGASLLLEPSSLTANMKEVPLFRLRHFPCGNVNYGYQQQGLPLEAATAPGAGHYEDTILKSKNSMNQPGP
The data set is described as follows: Tritiated thymidine uptake cell proliferation assay, BaF3 NPM/ALK. The format is cell-based. The following applies: 3[H]-thymidine uptake, 72 h; read-out: BaF NPM/ALK IC50. The method, boiled down:
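Cells were seeded at 10 000/well with serial inhibitor dilutions or DMSO vehicle and incubated 72 h at 37 °C, with ^3[H]-thymidine (1 μCi/well) added for the final 16 h. Incorporation was read by β scintillation counting. IC50 (μM) is the concentration giving a 50% decrease in uptake versus controls.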

Data set [4] deals with NPM/ALK positive SUDHL-1 cells. The data set is described as follows: Tritiated thymidine uptake cell proliferation assay, SUDHL-1. It is filed as cell-based. As to conditions: 3[H]-thymidine uptake, 72 h. How it is done:
Inhibition of the proliferation of NPM/ALK positive cells
(§4) Method: Tritiated Thymidine Uptake Cell Proliferation Assay
(§5) The following procedure was used with parent untransformed BaF3 cells, BaF3 cells transformed with the oncogenic fusion protein NPM/ALK, NPM/ALK positive SUDHL-1 cells, ALK-negative U937 cells, NPM/ALK positive KARPAS-299 cells. The parent untransformed BaF3 cells and Alk-negative U937 cells are used as controls. Cells were seeded in U-bottomed 96-well plates at 10 000 cells/well in a volume of 100 μL in supplemented medium. In the case of the parent untransformed BaF3 cells, the medium was supplemented with IL-3. Serial dilutions of inhibitors were added to the appropriate wells and volumes adjusted to 200 μL. Controls were treated with the equivalent volume of vehicle, DMSO, alone. Plates were incubated at 37° C. for 72 h. ^3[H]-thymidine (1 μCi/well) was added for the last 16 h of incubation. Cells were harvested on to paper filters and ^3[H]-thymidine incorporation was measured using a β scintillation counter (1430 MicroBeta, Wallac, Turku, Finland). The 50% inhibitory concentration (IC50) was defined as the concentration of inhibitor, expressed in micromolar, that gave a 50% decrease in ^3[H]-thymidine uptake compared with controls.

For the next data set, the system named is ALK-negative U937 cells. Kind of data set: Tritiated thymidine uptake cell proliferation assay, U937 (control). It is filed as cell-based. As to conditions: Homo sapiens, U-937; 3[H]-thymidine uptake, 72 h. How it is done: as §4
as §5, with “with controls. […]” for “with controls.”
as §5, with “RET-PTC2, or RET-negative 11937” for “NPM/ALK, NPM/ALK positive SUDHL-1 cells, ALK-negative U937 cells, NPM/ALK positive KARPAS-299”, “RET-negative” for “Alk-negative”

T1 sequence (Q9UM73 19-1620): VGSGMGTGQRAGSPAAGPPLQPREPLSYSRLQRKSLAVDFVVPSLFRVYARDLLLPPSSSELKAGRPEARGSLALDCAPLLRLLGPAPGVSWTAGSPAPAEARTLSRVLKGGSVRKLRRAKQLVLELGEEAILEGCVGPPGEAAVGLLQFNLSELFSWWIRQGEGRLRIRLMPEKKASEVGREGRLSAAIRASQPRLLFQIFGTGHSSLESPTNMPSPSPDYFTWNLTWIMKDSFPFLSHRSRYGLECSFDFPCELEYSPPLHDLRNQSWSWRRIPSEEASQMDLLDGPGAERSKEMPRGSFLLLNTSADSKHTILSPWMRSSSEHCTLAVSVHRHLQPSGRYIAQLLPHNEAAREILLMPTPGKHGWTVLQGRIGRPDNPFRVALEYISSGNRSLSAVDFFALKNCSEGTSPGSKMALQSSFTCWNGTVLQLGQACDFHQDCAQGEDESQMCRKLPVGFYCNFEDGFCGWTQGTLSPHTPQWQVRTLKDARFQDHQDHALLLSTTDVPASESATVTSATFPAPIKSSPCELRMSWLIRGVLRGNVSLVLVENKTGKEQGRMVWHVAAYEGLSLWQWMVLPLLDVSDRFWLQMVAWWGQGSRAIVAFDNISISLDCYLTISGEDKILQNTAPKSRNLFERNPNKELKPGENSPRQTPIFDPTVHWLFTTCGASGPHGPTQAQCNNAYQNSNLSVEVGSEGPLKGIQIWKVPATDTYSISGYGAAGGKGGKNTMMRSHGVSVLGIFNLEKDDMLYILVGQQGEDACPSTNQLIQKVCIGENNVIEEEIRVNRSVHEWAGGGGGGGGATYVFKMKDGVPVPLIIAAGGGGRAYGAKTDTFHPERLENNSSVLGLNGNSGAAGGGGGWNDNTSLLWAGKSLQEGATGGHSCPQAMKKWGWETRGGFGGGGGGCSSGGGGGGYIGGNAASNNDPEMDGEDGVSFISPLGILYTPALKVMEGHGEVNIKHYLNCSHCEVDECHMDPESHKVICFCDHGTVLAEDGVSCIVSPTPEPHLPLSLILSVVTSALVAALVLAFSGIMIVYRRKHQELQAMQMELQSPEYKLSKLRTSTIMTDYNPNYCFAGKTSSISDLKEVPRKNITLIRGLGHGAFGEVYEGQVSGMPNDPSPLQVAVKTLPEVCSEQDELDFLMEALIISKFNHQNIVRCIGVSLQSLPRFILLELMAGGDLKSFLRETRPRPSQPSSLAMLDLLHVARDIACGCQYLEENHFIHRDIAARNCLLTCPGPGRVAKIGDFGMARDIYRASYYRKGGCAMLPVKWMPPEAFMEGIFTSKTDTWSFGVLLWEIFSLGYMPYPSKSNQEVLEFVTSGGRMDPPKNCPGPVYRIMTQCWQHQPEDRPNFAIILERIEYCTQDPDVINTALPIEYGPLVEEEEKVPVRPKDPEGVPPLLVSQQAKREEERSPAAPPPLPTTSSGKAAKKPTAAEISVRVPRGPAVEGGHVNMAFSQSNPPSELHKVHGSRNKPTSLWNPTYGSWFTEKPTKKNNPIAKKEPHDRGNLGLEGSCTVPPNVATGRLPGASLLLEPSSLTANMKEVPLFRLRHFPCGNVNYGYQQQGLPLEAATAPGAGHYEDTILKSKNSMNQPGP

As for `COc1ccc(-c2ccc3c(n2)[nH]c2ccccc23)cc1` [R299, 2-(4-methoxyphenyl)-9H-pyrido[2,3-b]indole], the IC50 on Recombinant ALK kinase was 2100 ± 500 nM; in data set [1] it was more than 100 µM; at Recombinant Ret protein, 4.1 µM; in data set [2], more than 100 µM; in data set [4] it was 59 µM. For the same compound, the GI50 in data set [3] is more than 100 µM.

For the compound `C(#Cc1ccc2c(n1)[nH]c1ccccc12)c1ccccc1` [R342, 2-(phenylethynyl)-9H-pyrido[2,3-b]indole], the figures for the IC50 (in data set [2]; in data set [4]; in the data set on ALK-negative U937 cells) were more than 100 µM, 21 µM and 33 µM, respectively. The GI50 in data set [3] is more than 180 µM.

`O=C(CSC1=NCCS1)c1ccc2[nH]c3ncc(Cl)cc3c2c1` [R282, 1-(3-chloro-9H-pyrido[2,3-b]indol-6-yl)-2-(4,5-dihydrothiazol-2-ylsulfanyl)éthanone]: the IC50 in data set [1] is 36 µM; on Recombinant Ret protein, 9.5 µM; in data set [2], 32 µM; in data set [4], 0.7 µM. Moreover, the GI50 in data set [3] was 14 µM.

With `O=C(CSc1nc2ccccc2[nH]1)c1ccc2[nH]c3ncc(Cl)cc3c2c1` [R274, 2-(1H-Benzoimidazol-2-ylsulfanyl)-1-(3-chloro-9H-pyrido[2,3-b]indol-6-yl)ethanone], the IC50 in data set [1] came to 19 µM; at Recombinant Ret protein it was 14 µM; in data set [2], 0.9 µM; in data set [4] it was 0.6 µM. Further, the GI50 in data set [3] came to 1 µM.

Regarding `O=C(CSc1ccccn1)c1ccc2[nH]c3ncc(Cl)cc3c2c1` [R272, 1-(3-Chloro-9H-pyrido[2,3-b]indol-6-yl)-2-(pyridin-2-ylsulfanyl)ethanone], the IC50 in data set [1] is 41 µM; at Recombinant Ret protein, 19 µM; in data set [2] it was 2 µM; in data set [4], more than 25 µM. In data set [3], the GI50 was 2.5 µM.

Turning to `O=C(CSc1nc2ccccc2s1)c1ccc2[nH]c3ncc(Cl)cc3c2c1` [R273, 2-(Benzothiazol-2-ylsulfanyl)-1-(3-chloro-9H-pyrido[2,3-b]indol-6-yl)ethanone], the IC50 in data set [1] is 4.4 µM; at Recombinant Ret protein it was 2 µM; in data set [2] it was 14 µM; in data set [4], more than 25 µM. Besides, the GI50 in data set [3] was 19 µM.

As for `C(=C\c1cnc2[nH]c3ccccc3c2c1)/c1ccccc1` [R281, 3-(2′-phenylethenyl)-9H-pyrido[2,3-b]indole], the IC50 was 500 ± 300 nM at Recombinant ALK kinase; 1.8 µM in data set [1]; 1.1 µM on Recombinant Ret protein; more than 100 µM in data set [2]; more than 100 µM in data set [4]. Further, the GI50 in data set [3] is more than 100 µM.

For the compound `CCN(CC)CCSCC(=O)c1ccc2[nH]c3ncc(Cl)cc3c2c1` [R283, 1-(3-Chloro-9H-pyrido[2,3-b]indol-6-yl)-2-(N,N-diethylaminoethylsulfanyl)ethanone], the IC50 in data set [1] was 48 µM; at Recombinant Ret protein it was 5.7 µM; in data set [2] it was 3.6 ± 1.8 µM; in data set [4] it was 0.2 ± 0.02 µM. Besides, in data set [3], the GI50 was 0.5 ± 0.2 µM.

Regarding `O=C(CSc1ccccc1)c1ccc2[nH]c3ncc(Cl)cc3c2c1` [R275, 1-(3-Chloro-9H-pyrido[2,3-b]indol-6-yl)-2-phenylsulfanylethanone], the IC50 on Recombinant ALK kinase was 20000 ± 600 nM; in data set [1], more than 100 µM; on Recombinant Ret protein, 27 µM; in data set [2] it was 2 µM; in data set [4], more than 25 µM. Also, the GI50 in data set [3] is 8 µM.

In turn, `COc1ccc(-c2cnc3[nH]c4ccccc4c3c2)cc1` [R278, 3-(4-methoxyphenyl)-9H-pyrido[2,3-b]indole] came in with a melting point of more than 220 °C. Further, the IC50 on Recombinant ALK kinase was 1200 ± 200 nM. Moreover, the IC50 in data set [1] was found to be 23 µM. The IC50 at Recombinant Ret protein turned out to be 1 µM. Moreover, the IC50 in data set [2] was more than 50 µM. In addition, in data set [3], the GI50 is more than 50 µM.

One may read the IC50 as the concentration at which inhibition is half-maximal. By melting point is commonly meant the temperature of the solid-liquid transition.
